In data set [1] the test system is Musca domestica. Description: Musca domestica test. Format: in vivo. The note with it: application rate 100 ppm; adult houseflies; kill after 2 days. The procedure, abridged:
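First, 10 mg compound was taken up in 0.5 ml DMSO and then brought with water to the required concentration. This was applied with sugar solution to a sponge in vessels holding 10 adult flies; kill was assessed after 2 days.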

Data set [2] concerns Boophilus microplus. Description: Boophilus microplus - injection test. The conditions noted are these: application rate 20 μg/animal; injected into engorged adult female ticks; laying of fertile eggs, after 7 days. Format: in vivo. Put shortly: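 Engorged adult female ticks, five per dose, were injected in the abdomen with 1 μl of active ingredient diluted in dimethyl sulphoxide. Animals were kept in dishes under climate control, and egg fertility was assessed after 7 days.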

In data set [3] the test system is Rhipicephalus sanguineus. The data set is described as follows: Rhipicephalus sanguineus - in vitro contact tests with adult brown dog ticks. Format: in vivo. Put shortly:
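Test compound was dissolved in acetone p.a. (9 mg in 1 ml, then diluted), and 250 μl were spread evenly over the inner surface of 25 ml test tubes on an orbital shaker at 30 rpm for 2 h. Once the solvent evaporated, 5-10 adult Rhipicephalus sanguineus ticks were sealed in, kept dark at room temperature, and after 48 h placed on a 45-50° C. hotplate to score dead or moribund ticks.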

The nature of data set [4]: logP determination by HPLC on a reversed-phase column (C18), EEC Directive 79/831 Annex V.A8. The note with it: for log P: HPLC-MS, reversed-phase column (C18); for logP^a): HPLC-MS method a), Table I-T3. The data set is classed as physicochemical.
The subject of data set [5] is Amblyomma hebraeum. The data set is described as follows: Amblyomma hebraeum test (tick nymphs, immersion). The conditions noted are these: application rate 100 ppm; tick nymphs immersed for one minute; kill after 42 days. Format: in vivo. As to the method: Solvent: dimethyl sulphoxide
To produce an appropriate active ingredient formulation, 10 mg of active ingredient are mixed with 0.5 ml of dimethyl sulphoxide, and the concentrate is diluted with water to the desired concentration.
Tick nymphs (Amblyomma hebraeum) are placed into perforated plastic beakers and immersed in the desired concentration for one minute. The ticks are transferred on filter paper into a Petri dish and stored in a climate-controlled cabinet.
After 42 days, the kill in % is determined. 100% means that all of the ticks have been killed; 0% means that none of the ticks have been killed.

In data set [6] the test system is Ctenocephalides felis. Description: Ctenocephalides felis - oral test. The data set is classed as in vivo. The conditions noted are these: application rate 100 ppm in citrated cattle blood; adult fleas; kill after 2 days. The procedure, abridged: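 Steps: active ingredient dissolved in dimethyl sulphoxide; blood dilution prepared; fleas (about 20, unfed adults) held in gauze-closed chamber beneath a cylinder of treated blood; feeding via parafilm; kill percentage determined after 2 days.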

Data set [7] relates to Boophilus microplus Parkhurst strain, SP-resistant. Description: Boophilus microplus - dip test. Format: in vivo. The conditions noted are these: application rate 100 ppm; dip of engorged adult female ticks; laying of fertile eggs, after 7 days. The procedure, abridged:
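Efficacy reflects suppression of fertile egg laying: 0% means all eggs fertile, 100% none, read at 7 days, doubtful eggs kept ~42 days for larval hatch. Treatment was a complete dip of 8–10 engorged adult female ticks (SP-resistant Parkhurst strain) in a water dilution of a DMSO stock.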

Data set [8] relates to Lucilia cuprina. Description: Lucilia cuprina test. Format: in vivo. The conditions noted are these: application rate 100 ppm; L1 larvae in minced horsemeat; kill after 2 days. The procedure, abridged: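 Mortality (%) of first-instar blowfly larvae, about 20 per vessel, recorded 2 days after exposure to compound-treated minced horsemeat. Compound dissolved in dimethyl sulphoxide, then water-diluted to the desired concentration.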

In data set [9] the test system is Ctenocephalides felis. The data set is described as follows: Ctenocephalides felis - in vitro contact tests with adult cat fleas. The conditions noted are these: application rate 5 μg/cm^2 (=500 g/ha), after 48 h (dead or moribund). Format: in vivo. The procedure, abridged: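 Efficacy, as share of dead or moribund adult Ctenocephalides felis, read 48 h after placing 5-10 fleas in tubes coated by acetone solution (5 μg/cm^2 at 900 ppm). Incubation horizontal at room temperature, ambient humidity; immobile or uncoordinated fleas scored.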

The mark [10] stands for this setting: application rate 5 μg/cm^2, after 48 h (dead or moribund).
The mark [11] stands for this setting: application rate 1 μg/cm^2, after 48 h (dead or moribund).

Here are results for 15 compounds from patent US9758485B2, “Compounds for controlling arthropods” (priority 2013, dated 2017).

Molecules are shown by their SMILES.

For orientation: log P means a log measure of how a compound divides between an organic and an aqueous phase. Higher therefore signals higher lipophilicity. For the compound `O=C(NC1CC1)c1cc(-c2cnn(-c3c(Br)cc(C(F)(C(F)(F)F)C(F)(F)F)cc3C(F)(F)F)c2)ccc1Cl` [I-T3-148], the efficacy in data set [1], in data set [2], in data set [3] (setting [10]), in data set [5], in [6] and in data set [7] was 100% throughout. Also, the efficacy in [8] and in data set [9] was 100% throughout. The lipophilicity (log P) in [4] is on record as 4.5.

For `O=C(NC1CC1)c1cc(-c2cnn(-c3c(Cl)cc(C(F)(C(F)(F)F)C(F)(F)F)cc3Cl)c2)cnc1Cl` [I-T3-42], the efficacy in data set [1], in [2], in [3] (setting [10]), in data set [5], in data set [6] and in [7] was 100% throughout. For the same compound, the efficacy in [8] and in data set [9] was 100% in each case. For the same compound, the “logP^a)” value in [4] stood at 3.8.

Regarding `O=C(NC1CC1)c1cc(-c2cnn(-c3c(Cl)cc(C(F)(F)F)cc3Cl)c2)cnc1Cl` [I-T3-98], the efficacy in [1] is reported as 90%; in data set [2], 100%; in data set [3] (setting [10]), 100%; in data set [5] it was 100%; in [6], 100%; in [7] it was 100%. Also, the efficacy in data set [8] and in [9] was 100% in each case. The lipophilicity (log P) in data set [4] is recorded as 3.1.

For `Cc1cc(C(F)(C(F)(F)F)C(F)(F)F)cc(C)c1-n1cc(-c2cnc(Cl)c(C(=O)NC3CC3)c2)cn1` [I-T3-20], the efficacy in data set [1], in data set [2], in data set [3] (setting [10]), in data set [5], in [6] and in data set [7] was 100% each time. The efficacy in data set [8] and in [9] was 100% in each case. Further, the “logP^a)” value in data set [4] came to 3.8.

For `Cc1cc(C(F)(C(F)(F)F)C(F)(F)F)cc(C)c1-n1cc(-c2cnc(C)c(C(=O)NC3(C#N)CC3)c2)cn1` [I-T3-97], the efficacy in data set [1], in data set [2], in data set [3] (setting [10]), in data set [5], in data set [6] and in [7] was 100% in each case. The efficacy in [8] and in data set [9] was 100% throughout. Also, the “log P” value in data set [4] turned out to be 3.4.

Regarding `Cc1cc(C(F)(C(F)(F)F)C(F)(F)F)cc(C)c1-n1cc(-c2cnc(Cl)c(C(=O)NC3(C#N)CC3)c2)cn1` [I-T3-21], the efficacy in [1], in data set [2], in [3] (setting [10]), in data set [5], in [6] and in [7] was 100% in each case. For the same compound, the efficacy in data set [8] and in data set [9] was 100% throughout. Moreover, in data set [4], the “logP^a)” value worked out at 3.7.

For the compound `Cc1cc(C(F)(C(F)(F)F)C(F)(F)F)cc(C(F)(F)F)c1-n1cc(-c2ccc(Cl)c(C(=O)NC3(C#N)CC3)c2)cn1` [I-T3-55], the efficacy in data set [1], in data set [2], in data set [3] (setting [10]), in data set [5], in data set [6] and in data set [7] was 100% in each case. The efficacy in [8] and in data set [9] was 100% each time. In [4], the “logP^a)” value worked out at 4.3.

For `Cc1ncc(-c2cnn(-c3c(Cl)cc(C(F)(C(F)(F)F)C(F)(F)F)cc3Cl)c2)cc1C(=O)NC1CC1` [I-T3-91], the efficacy in data set [1], in data set [2], in data set [3] (setting [10]), in data set [5], in data set [6] and in data set [7] was 100% throughout. In addition, the efficacy in data set [8] and in data set [9] was 100% in each case. Besides, in [4], the lipophilicity (log P) worked out at 3.3.

For the compound `O=C(NC1CC1)c1cc(-c2cnn(-c3c(Cl)cc(C(F)(C(F)(F)F)C(F)(F)F)cc3C(F)(F)F)c2)ccc1Cl` [I-T3-56], the efficacy in [1], in [2], in data set [3] (setting [10]), in [5], in [6] and in data set [7] was 100% in each case. The efficacy in data set [8] and in data set [9] was 100% in each case. For the same compound, the “logP^a)” value in data set [4] is given as 4.4.

For the compound `O=C(NC1CC1)c1cc(-c2cnn(-c3c(F)cc(C(F)(C(F)(F)F)C(F)(F)F)cc3F)c2)ccc1Cl` [I-T3-61], the efficacy is recorded as 100% in data set [1]; 100% in data set [2]; 100% in [3] (setting [10]); 80% in data set [5]; 100% in data set [6]; 100% in data set [7]. The efficacy in data set [8] and in data set [9] was 100% in each case. The “logP^a)” value in data set [4] is recorded as 4.0.

For `CCc1cc(C(F)(F)C(F)(F)F)cc(C)c1-n1cc(-c2ccc(Cl)c(C(=O)NC3CC3)c2)cn1` [I-T3-81], the efficacy was 90% in [1]; 100% in data set [2]; 100% in data set [3] (setting [10]); 100% in [5]; 100% in data set [6]; 100% in data set [7]. For the same compound, the efficacy in [8] and in data set [9] was 100% throughout. Also, in data set [4], the “logP^a)” value amounted to 4.3.

Consider `Cc1cc(C(F)(C(F)(F)F)C(F)(F)F)cc(C(F)(F)F)c1-n1cc(-c2ccc(Cl)c(C(=O)NC3CC3)c2)cn1` [I-T3-54], for which the efficacy in [1], in [2], in [3] (setting [10]), in data set [5], in data set [6] and in data set [7] was 100% throughout. For the same compound, the efficacy in data set [8] and in [9] was 100% each time. In addition, the “logP^a)” value in data set [4] is given as 4.4.

With `O=C(NC1CC1)c1cc(-c2cnn(-c3c(Cl)cc(C(F)(C(F)(F)F)C(F)(F)F)cc3C(F)(F)F)c2)cnc1Cl` [I-T3-112], the efficacy in data set [1], in data set [2], in data set [3] (setting [10]), in data set [5], in data set [6] and in [7] was 100% in each case. Further, the efficacy in [8] and in data set [9] was 100% throughout. In addition, the “log P” value in data set [4] worked out at 4.0.

As to `Cc1cc(C(F)(C(F)(F)F)C(F)(F)F)cc(C(F)(F)F)c1-n1cc(-c2cnc(C)c(C(=O)N(C)C3(C#N)CC3)c2)cn1` [I-T3-123], the efficacy was 100% in data set [1]; 100% in [2]; 80% in data set [3] (setting [11]); 80% in [5]; 100% in data set [6]; 100% in [7]. The efficacy in data set [8] and in data set [9] was 100% in each case. For the same compound, in data set [4], the “log P” value was 3.9.

For `N#CC1(NC(=O)c2cc(-c3cnn(-c4c(Cl)cc(C(F)(C(F)(F)F)C(F)(F)F)cc4C(F)(F)F)c3)cnc2Cl)CC1` [I-T3-114], the efficacy in data set [1], in data set [2], in data set [3] (setting [11]), in [5], in [6] and in data set [7] was 100% in each case. In addition, the efficacy in [8] and in data set [9] was 100% in each case. In addition, in data set [4], the “log P” value is 4.0.
